# Columns and labels:
# [1] = test system: Escherichia coli NCTC 8196; assay: MIC, microtitre dilution test (growth by optical density at 620 nm); type: cell-based; settings: Table 2, Escherichia coli
# Method: (§1) Casein/soybean flour peptone bouillon for the preparation of pre-cultures of the test bacteria and yeast.
# (§2) The test substances are predissolved in dimethyl sulfoxide (DMSO) and tested in a dilution series of 1:2.
# (§3) Bacteria and yeast are cultured overnight in CASO bouillon, the mould is cultured overnight on mycological slant agar, and washed off with 10 ml of 0.85% sodium chloride solution (+0.1% TritonX-100).
# (§4) All the test organisms are adjusted to an organism count of 1-5×10^6 CFU/ml using 0.85% sodium chloride solution.
# (§5) The test substances are pre-pipetted into microtitre plates in an amount of 8 μl per well.
# (§6) Pre-diluted organism suspensions are diluted 1:100 in CASO bouillon (bacteria and yeast) or Sabouraud 2% glucose bouillon (mould) and are added in an amount of 192 μl per well to the test substances.
# (§7) The test batches are incubated for 48 hours at 37° C. (bacteria and yeast) or for 5 days at 28° C. (mould).
# (§8) After incubation, the growth is evaluated by reference to the turbidity of the test batches (optical density) at 620 nm in a microplate reader.
# (§9) The minimum inhibitory concentration (MIC value) is the concentration of substance at which (compared with the growth of the control) an appreciable inhibition of growth (≦20% growth) of the test organisms is ascertained.
# (§10) One microtitre plate is used for each test organism and substance concentration. All the substances are tested in duplicate.
# [2] = test system: Staphylococcus hominis DMS 20328; assay: as above; type: cell-based; settings: Table 2, Staphylococcus hominis DMS 20328
# Method: as §1, §2, §3, §4, §5, §6, §7, §8, §9, §10
SMILES,MIC [ppm] E. coli [1],MIC [ppm] S. hominis [2],"MIC ([1]; NCTC8196, read-out: MIC [ppm] E. coli)","MIC ([2]; DMS20328, read-out: MIC [ppm] S. hominis)"
CN1C(=O)C2c3[nH]c4ccccc4c3C3CCC(C(C)(C)C)CC3C2C1=O (centres unmarked) [Compound 111],>120 ppm,60 ppm,,
COc1ccc2[nH]c3c(c2c1)C1CCN(C(C)C)CC1C1C(=O)N(C)C(=O)C31 (centres unmarked) [Compound 171],>120 ppm,>120 ppm,,
CCN1C(=O)C2c3[nH]c4ccc(Br)cc4c3C3CCC(C(C)(C)C)CC3C2C1=O (centres unmarked) [Compound 44],>120 ppm,>120 ppm,,
CCc1cccc2c3c([nH]c12)C1C(=O)NC(=O)C1C1CCCCCC31 (centres unmarked) [Compound 77],>120 ppm,15 ppm,,
Cn1c2c(c3ccccc31)C1CCC(C(C)(C)C)CC1C1C(=O)N(c3ccccc3)C(=O)C21 (centres unmarked) [Compound 22],>120 ppm,>120 ppm,,
CCC(C)(C)C1CCC2c3c([nH]c4ccccc34)C3C(=O)N(C)C(=O)C3C2C1 (centres unmarked) [Compound 120],>120 ppm,30 ppm,,
CCOC(=O)N1CCC2c3c([nH]c4ccccc34)C3C(=O)N(c4ccccc4)C(=O)C3C2C1 (centres unmarked) [Compound 52],>120 ppm,>120 ppm,,
COc1ccc2[nH]c3c(c2c1)C1CCCC1C1C(=O)NC(=O)C31 (centres unmarked) [Compound 92],>120 ppm,>120 ppm,,
CCOC(=O)N1CCC2c3c([nH]c4ccc(Br)cc34)C3C(=O)NC(=O)C3C2C1 (centres unmarked) [Compound 68],>120 ppm,>120 ppm,,
CCN1CCC2c3c([nH]c4ccc(OC)cc34)C3C(=O)NC(=O)C3C2C1 (centres unmarked) [Compound 103],>120 ppm,>120 ppm,,
CC(C)(C)C1CCC2c3c([nH]c4ccc(Br)cc34)C3C(=O)N(c4ccccc4)C(=O)C3C2C1 (centres unmarked) [Compound 19],>120 ppm,>120 ppm,,
CCc1cccc2c3c([nH]c12)C1C(=O)NC(=O)C1C1CCCC31 (centres unmarked) [Compound 75],>120 ppm,30 ppm,,
CC(C)(C)C1CCC2c3c([nH]c4ccc(Br)cc34)C3C(=O)NC(=O)C3C2C1 (centres unmarked) [Compound 31],>120 ppm,15 ppm,,
CC(C)(C)C1CCC2c3c([nH]c4ccccc34)C3C(=O)NC(=O)C3C2C1 (centres unmarked) [Compound 26],>120 ppm,15 ppm,,
O=C1NC(=O)C2C1c1[nH]c3ccc(Br)cc3c1C1CCCCCC12 (centres unmarked) [Compound 32],>120 ppm,3.75 ppm,,
CC1CCC2C(C1)c1c([nH]c3ccccc13)C1C(=O)N(C)C(=O)C12 (centres unmarked) [Compound 117],,,> 120 µg/mL,> 120 µg/mL
CN1C(=O)C2c3[nH]c4ccccc4c3C3CC(C)(C)CC(C)(C)C3C2C1=O (centres unmarked) [Compound 126],>120 ppm,>120 ppm,,
CCCC1CCC2c3c([nH]c4ccc(OC)cc34)C3C(=O)N(C)C(=O)C3C2C1 (centres unmarked) [Compound 174],>120 ppm,30 ppm,,
O=C1NC(=O)C2C1c1[nH]c3ccc(Br)cc3c1C1CCCCCCC12 (centres unmarked) [Compound 73],>120 ppm,60 ppm,,

SMILES,MIC [ppm] E. coli [1],MIC [ppm] S. hominis [2],"MIC ([1]; NCTC8196, read-out: MIC [ppm] E. coli)","MIC ([2]; DMS20328, read-out: MIC [ppm] S. hominis)"
CC1(C)CC2c3c([nH]c4ccccc34)C3C(=O)NC(=O)C3C2C(C)(C)N1 (centres unmarked) [Compound 28],>120 ppm,>120 ppm,,
CCN1C(=O)C2c3c(c4ccccc4n3C)C3CCC(C(C)(C)C)CC3C2C1=O (centres unmarked) [Compound 49],>120 ppm,>120 ppm,,
COc1ccc2[nH]c3c(c2c1)C1CCN(Cc2ccccc2)CC1C1C(=O)NC(=O)C31 (centres unmarked) [Compound 104],>120 ppm,>120 ppm,,
COc1ccc2[nH]c3c(c2c1)C1CCCCCC1C1C(=O)N(C)C(=O)C31 (centres unmarked) [Compound 167],>120 ppm,>120 ppm,,
COc1ccc2[nH]c3c(c2c1)C1CCN(Cc2ccccc2)CC1C1C(=O)N(C)C(=O)C31 (centres unmarked) [Compound 177],120 ppm,120 ppm,,
COc1ccc2[nH]c3c(c2c1)C1CCN(C)CC1C1C(=O)NC(=O)C31 (centres unmarked) [Compound 105],>120 ppm,>120 ppm,,
COc1ccc2[nH]c3c(c2c1)C1CC(C)CCC1C1C(=O)N(C)C(=O)C31 (centres unmarked) [Compound 172],>120 ppm,>120 ppm,,
CN1C(=O)C2c3[nH]c4ccccc4c3C3CCCCCCC3C2C1=O (centres unmarked) [Compound 125],>120 ppm,>120 ppm,,
CCCCCCC1CCC2C3C(=O)NC(=O)C3c3[nH]c4ccccc4c3C12 (centres unmarked) [Compound 57],>120 ppm,>120 ppm,,
CCCN1CCC2c3c([nH]c4ccc(Br)cc34)C3C(=O)NC(=O)C3C2C1 (centres unmarked) [Compound 33],60 ppm,30 ppm,,
CCN1C(=O)C2c3[nH]c4ccccc4c3C3CCC(C(C)(C)C)CC3C2C1=O (centres unmarked) [Compound 39],>120 ppm,>120 ppm,,
Cn1c2c(c3ccccc31)C1CCC(C(C)(C)C)CC1C1C(=O)NC(=O)C21 (centres unmarked) [Compound 36],>120 ppm,>120 ppm,,
CC1(C)CC2c3c([nH]c4ccccc34)C3C(=O)NC(=O)C3C2C(C)(C)C1 (centres unmarked) [Compound 63],>120 ppm,7.5 ppm,,
COc1ccc2[nH]c3c(c2c1)C1CCCCCCC1C1C(=O)N(C)C(=O)C31 (centres unmarked) [Compound 180],>120 ppm,>120 ppm,,
CN1CCC2c3c([nH]c4ccccc34)C3C(=O)N(C)C(=O)C3C2C1 (centres unmarked) [Compound 123],120 ppm,>120 ppm,,
CN1C(=O)C2c3[nH]c4ccc(Br)cc4c3C3CCC(C(C)(C)C)CC3C2C1=O (centres unmarked) [Compound 129],>120 ppm,>120 ppm,,
COc1ccc2[nH]c3c(c2c1)C1CCC(C(C)(C)C)CC1C1C(=O)N(C)C(=O)C31 (centres unmarked) [Compound 166],>120 ppm,>120 ppm,,
CN1C(=O)C2c3[nH]c4ccccc4c3C3CCN(Cc4ccccc4)CC3C2C1=O (centres unmarked) [Compound 122],>120 ppm,>120 ppm,,
